In US8580918B2, “Peptidic GLP-2 agonists” (Ferring B.V., priority 2009, dated 2013):
Where a SMILES comes first, the peptide text is derived from it. [ ]: non-standard residue; d: D form. Phe(4-NH2) = Nc1ccc(C[C@H](N)C(=O)O)cc1; 1Nal = N[C@@H](Cc1cccc2ccccc12)C(=O)O; 2Nal = N[C@@H](Cc1ccc2ccccc2c1)C(=O)O; Cha = N[C@@H](CC1CCCCC1)C(=O)O; Nle = CCCC[C@H](N)C(=O)O

Experiment: Pharmacokinetics in rats after intravenous bolus injection (systemic clearance)
Format: in vivo
Conditions: rat, plasma, 0.2 mg FB/kg, adult male Sprague-Dawley rats, i.v. bolus, dose 0.20 mg FB/kg, read-out: CL (ml/kg/min) Average
Protocol: Pharmacokinetic (PK) parameters of illustrative agonists of the GLP-2 receptor were determined in adult male Sprague-Dawley rats post intravenous bolus injection of compounds at doses of 0.1-1.0 mg/kg. Three or four doubly cannulated animals per compound were dosed via jugular vein, blood samples were collected at several intervals via carotid artery, and plasma samples were prepared from whole blood using K2EDTA as anticoagulant. Subsequent bioanalysis of samples included compound extraction and plasma concentration determination using standard LC/MS/MS methods. Analyte concentration was calculated from internal standard normalized peak area and calibration curves.
For calculation of PK parameters the compound concentration-time curves were analyzed with the noncompartmental data analysis software package PK Solutions 2.0™ (Summit Research Services, Montrose Colo.). The systemic clearance per kg body weight (CL) was calculated as the dose per kg body weight divided by the AUC extrapolated to infinity based on trapezoid calculation (AUC∞). Values reported are the arithmetic mean and standard deviation from the number of animals used for each compound as indicated on Table 3.

Structure (SMILES)	clearance [mL/kg/min]
CCCC[C@H](NC(=O)[C@H](CCC(=O)O)NC(=O)[C@H](CC(=O)O)NC(=O)[C@H](CO)NC(=O)[C@H](Cc1ccccc1)NC(=O)[C@H](CO)NC(=O)CNC(=O)[C@H](CC(=O)O)NC(=O)CNC(=O)[C@@H](N)Cc1cnc[nH]1)C(=O)N[C@@H](CC(N)=O)C(=O)N[C@H](C(=O)N[C@H](C(=O)N[C@@H](CC(C)C)C(=O)N[C@@H](CC(=O)O)C(=O)N[C@@H](Cc1cccc2ccccc12)C(=O)N[C@@H](CC(C)C)C(=O)N[C@@H](C)C(=O)N[C@@H](C)C(=O)N[C@@H](CCCNC(=N)N)C(=O)N[C@@H](CC(=O)O)C(=O)N[C@@H](Cc1ccccc1)C(=O)N[C@H](C(=O)N[C@@H](CC(N)=O)C(=O)N[C@@H](Cc1c[nH]c2ccccc12)C(=O)N[C@@H](CC(C)C)C(=O)N[C@H](C(=O)N[C@@H](CCC(N)=O)C(=O)N[C@H](C(=O)N[C@@H](CCCCN)C(N)=O)[C@@H](C)O)[C@@H](C)CC)[C@@H](C)CC)[C@@H](C)CC)[C@@H](C)O [Compound 17, [Gly2,Nle10,1-Nal16] hGLP-2 (1-30)-NH2] (H-HGDGSFSDE[Nle]NTILD[1Nal]LAARDFINWLIQTK-NH2)	0.43
CCCC[C@H](NC(=O)[C@H](CCC(=O)O)NC(=O)[C@H](CC(=O)O)NC(=O)[C@H](CO)NC(=O)[C@H](Cc1ccccc1)NC(=O)[C@H](CO)NC(=O)CNC(=O)[C@H](CC(=O)O)NC(=O)CNC(=O)[C@@H](N)Cc1c[nH]cn1)C(=O)N[C@@H](CC(N)=O)C(=O)N[C@H](C(=O)N[C@H](C(=O)N[C@@H](CC(C)C)C(=O)N[C@@H](CC(=O)O)C(=O)N[C@@H](Cc1ccc(O)cc1)C(=O)N[C@@H](CC(C)C)C(=O)N[C@@H](C)C(=O)N[C@@H](C)C(=O)N[C@@H](CCCNC(=N)N)C(=O)N[C@@H](CC(=O)O)C(=O)N[C@@H](Cc1ccccc1)C(=O)N[C@H](C(=O)N[C@@H](CC(N)=O)C(=O)N[C@@H](Cc1c[nH]c2ccccc12)C(=O)N[C@@H](CC(C)C)C(=O)N[C@H](C(=O)N[C@@H](CCC(N)=O)C(=O)N[C@H](C(=O)N[C@@H](CCCCN)C(N)=O)[C@@H](C)O)[C@@H](C)CC)[C@@H](C)CC)[C@@H](C)CC)[C@@H](C)O [Compound 18, [Gly2,Nle10,Tyr16] hGLP-2 (1-30)-NH2] (H-HGDGSFSDE[Nle]NTILDYLAARDFINWLIQTK-NH2)	1.2
CCCC[C@H](NC(=O)[C@H](CCC(=O)O)NC(=O)[C@H](CC(=O)O)NC(=O)[C@H](CO)NC(=O)[C@H](Cc1ccccc1)NC(=O)[C@H](CO)NC(=O)CNC(=O)[C@H](CC(=O)O)NC(=O)CNC(=O)[C@@H](N)Cc1c[nH]cn1)C(=O)N[C@@H](CC(N)=O)C(=O)N[C@H](C(=O)N[C@H](C(=O)N[C@@H](CC(C)C)C(=O)N[C@@H](CC(=O)O)C(=O)N[C@@H](Cc1c[nH]c2ccccc12)C(=O)N[C@@H](CC(C)C)C(=O)N[C@@H](C)C(=O)N[C@@H](C)C(=O)N[C@@H](CCCNC(=N)N)C(=O)N[C@@H](CC(=O)O)C(=O)N[C@@H](Cc1ccccc1)C(=O)N[C@H](C(=O)N[C@@H](CC(N)=O)C(=O)N[C@@H](Cc1c[nH]c2ccccc12)C(=O)N[C@@H](CC(C)C)C(=O)N[C@H](C(=O)N[C@@H](CCC(N)=O)C(=O)N[C@H](C(=O)N[C@@H](CCCCN)C(N)=O)[C@@H](C)O)[C@@H](C)CC)[C@@H](C)CC)[C@@H](C)CC)[C@@H](C)O [Compound 22, [Gly2,Nle10,Trp16] hGLP-2 (1-30)-NH2] (H-HGDGSFSDE[Nle]NTILDWLAARDFINWLIQTK-NH2)	0.5
CCCC[C@H](NC(=O)[C@H](CCC(=O)O)NC(=O)[C@H](CC(=O)O)NC(=O)[C@H](CO)NC(=O)[C@H](Cc1ccccc1)NC(=O)[C@H](CO)NC(=O)CNC(=O)[C@H](CC(=O)O)NC(=O)CNC(=O)[C@@H](N)Cc1cnc[nH]1)C(=O)N[C@@H](CC(N)=O)C(=O)N[C@H](C(=O)N[C@H](C(=O)N[C@@H](CC(C)C)C(=O)N[C@@H](CC(=O)O)C(=O)N[C@@H](CC1CCCCC1)C(=O)N[C@@H](CC(C)C)C(=O)N[C@@H](C)C(=O)N[C@@H](C)C(=O)N[C@@H](CCCNC(=N)N)C(=O)N[C@@H](CC(=O)O)C(=O)N[C@@H](Cc1ccccc1)C(=O)N[C@H](C(=O)N[C@@H](CC(N)=O)C(=O)N[C@@H](Cc1c[nH]c2ccccc12)C(=O)N[C@@H](CC(C)C)C(=O)N[C@H](C(=O)N[C@@H](CCC(N)=O)C(=O)N[C@H](C(=O)N[C@@H](CCCCN)C(N)=O)[C@@H](C)O)[C@@H](C)CC)[C@@H](C)CC)[C@@H](C)CC)[C@@H](C)O [Compound 23, [Gly2,Nle10,Cha16] hGLP-2 (1-30)-NH2] (H-HGDGSFSDE[Nle]NTILD[Cha]LAARDFINWLIQTK-NH2)	0.41
CCCC[C@H](NC(=O)[C@H](CCC(=O)O)NC(=O)[C@H](CC(=O)O)NC(=O)[C@H](CO)NC(=O)[C@H](Cc1ccccc1)NC(=O)[C@H](CO)NC(=O)CNC(=O)[C@H](CC(=O)O)NC(=O)CNC(=O)[C@@H](N)Cc1c[nH]cn1)C(=O)N[C@@H](CC(N)=O)C(=O)N[C@H](C(=O)N[C@H](C(=O)N[C@@H](CC(C)C)C(=O)N[C@@H](CC(=O)O)C(=O)N[C@@H](Cc1ccc(N)cc1)C(=O)N[C@@H](CC(C)C)C(=O)N[C@@H](C)C(=O)N[C@@H](C)C(=O)N[C@@H](CCCNC(=N)N)C(=O)N[C@@H](CC(=O)O)C(=O)N[C@@H](Cc1ccccc1)C(=O)N[C@H](C(=O)N[C@@H](CC(N)=O)C(=O)N[C@@H](Cc1c[nH]c2ccccc12)C(=O)N[C@@H](CC(C)C)C(=O)N[C@H](C(=O)N[C@@H](CCC(N)=O)C(=O)N[C@H](C(=O)N[C@@H](CCCCN)C(N)=O)[C@@H](C)O)[C@@H](C)CC)[C@@H](C)CC)[C@@H](C)CC)[C@@H](C)O [Compound 24, [Gly2,Nle10,Aph16] hGLP-2 (1-30)-NH2] (H-HGDGSFSDE[Nle]NTILD[Phe(4-NH2)]LAARDFINWLIQTK-NH2)	1.9

Same assay, conditions: rat, plasma, adult male Sprague-Dawley rats, i.v. bolus, dose 0.18 mg FB/kg, read-out: CL (ml/kg/min) Average

Structure (SMILES)	clearance [mL/kg/min]
CCCC[C@H](NC(=O)[C@H](CCC(=O)O)NC(=O)[C@H](CC(=O)O)NC(=O)[C@H](CO)NC(=O)[C@H](Cc1ccccc1)NC(=O)[C@H](CO)NC(=O)CNC(=O)[C@H](CC(=O)O)NC(=O)CNC(=O)[C@@H](N)Cc1c[nH]cn1)C(=O)N[C@@H](CC(N)=O)C(=O)N[C@H](C(=O)N[C@H](C(=O)N[C@@H](CC(C)C)C(=O)N[C@@H](CC(=O)O)C(=O)N[C@@H](Cc1ccc2ccccc2c1)C(=O)N[C@@H](CC(C)C)C(=O)N[C@@H](C)C(=O)N[C@@H](C)C(=O)N[C@@H](CCCNC(=N)N)C(=O)N[C@@H](CC(=O)O)C(=O)N[C@@H](Cc1ccccc1)C(=O)N[C@H](C(=O)N[C@@H](CC(N)=O)C(=O)N[C@@H](Cc1c[nH]c2ccccc12)C(=O)N[C@@H](CC(C)C)C(=O)N[C@H](C(=O)N[C@@H](CCC(N)=O)C(=O)N[C@H](C(=O)N[C@@H](CCCCN)C(N)=O)[C@@H](C)O)[C@@H](C)CC)[C@@H](C)CC)[C@@H](C)CC)[C@@H](C)O [Compound 20, [Gly2,Nle10,2-Nal16] hGLP-2 (1-30)-NH2] (H-HGDGSFSDE[Nle]NTILD[2Nal]LAARDFINWLIQTK-NH2)	0.28
